“Also recorded” adds a separate entry of the source.
How the values were obtained:
[1] = test system: carrageenan-induced rat paw edema; experiment: Inflammatory pain in rats induced by carrageenan intraplantar injection (paw edema); format: in vivo, Male Wistar rats; conditions: oral capsules 1 h before 1% carrageenan; KL Co-xx 47.1 mg/kg, Gabapentin 20.4 mg/kg, admixture 47.1+20.4 mg/kg; FIGS. 4 and 5
From the text: Rat chow and tap water were available ad libitum. […] Animal care was in compliance with Italian Legislative Decree (D.L. 116/92) and European Commission Directive (O.J. of E.C. L358/1, 18/12/86) regulations on the protection of laboratory animals. All efforts were made to minimize animal suffering and the number of animals used.
Edema was expressed as the mean increase in paw volume (ml) relative to control animals.

osteoarthritis = conditions: prolonged administration; cited from earlier work
[2] = cited from earlier work
[3] = in vivo; cited from earlier work
[4] = Plasma and brain levels of Gabapentin after oral administration as capsules; conditions: male, Sprague-Dawley, rat, in vivo, 2 capsules

NCC1(CC(=O)O)CCCCC1 [Gabapentin]
anti-inflammatory effect on carrageenan-evoked edema (paw volume, % inhibition) [1]: less effective; also recorded: little active on inflammatory pain
start of therapeutic effect in osteoarthritis (duration of administration) (osteoarthritis): 3 months
time of utmost level in plasma ([2]; after oral administration): 3 to 4 h
binding to plasma proteins ([2]; in vivo): does not attach to plasma proteins
hepatic metabolism ([2]; in vivo): neither inhibited nor metabolized by hepatic enzymes
excretion half-life ([2]; renal excretion): roughly 6 hours
side effect: ataxia [3]: 13%
side effect: dizziness [3]: 18%
side effect: fatigue [3]: 11%
side effect: somnolence [3]: 20%
Kp at 2 h [4]: 0.378

Reference: patent publication US12667549B2 (DOMPÉ FARMACEUTICI S.P.A., priority 2020, dated 2026)
